As usually defined, the Ki is a measure of affinity in units of concentration, obtained from inhibition or displacement.

In ChEMBL document CHEMBL5729720, “Pyridine and pyrazine derivatives as preferential cannabinoid 2 agonists” (2023) one finds Ki data, which are given here for 3 compounds.

The assay addresses Cannabinoid receptor 2 (Homo sapiens, UniProt P34972). Briefly: Radioligand Binding Assay: The affinity of the compounds of the invention for cannabinoid CB1 receptors was determined using recommended amounts of membrane preparations (PerkinElmer) of human embryonic kidney (HEK) cells expressing the human CNR1 or CNR2 receptors in conjunction with 1.5 or 2.6 nM [3H]-CP-55,940 (Perkin Elmer) as radioligand, respectively. Binding was performed in binding buffer (50 mM Tris, 5 mM MgCl2, 2.5 mM EDTA, and 0.5% (wt/vol) fatty acid free BSA, pH 7.4 for CB1 receptor and 50 mM Tris, 5 mM MgCl2, 2.5 mM EGTA, and 0.1% (wt/vol) fatty acid free BSA, pH 7.4 for CB2 receptor) in a total volume of 0.2 ml for 1 h at 30° C. shaking. The reaction was terminated by rapid filtration through microfiltration plates coated with 0.5% polyethylenimine (UniFilter GFB filter plate; Packard). Bound radioactivity was analyzed for Ki using nonlinear regression analysis (Activity Base, ID Business Solution, Limited), with the Kd values for [3H]CP55,940 determined from saturation experiments. The compounds of formula (I) show an excellent affinity for the CB2 receptor.

Sequence of Cannabinoid receptor 2 (P34972 whole entry): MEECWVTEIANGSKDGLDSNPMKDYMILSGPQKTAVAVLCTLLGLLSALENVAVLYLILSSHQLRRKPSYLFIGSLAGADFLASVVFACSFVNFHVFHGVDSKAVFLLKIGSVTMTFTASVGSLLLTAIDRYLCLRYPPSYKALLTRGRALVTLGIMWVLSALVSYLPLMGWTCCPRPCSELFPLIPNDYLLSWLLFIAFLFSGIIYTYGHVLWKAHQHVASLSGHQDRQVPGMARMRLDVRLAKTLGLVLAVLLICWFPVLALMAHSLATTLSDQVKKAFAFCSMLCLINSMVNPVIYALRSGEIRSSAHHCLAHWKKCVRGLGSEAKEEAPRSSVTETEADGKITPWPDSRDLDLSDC

Turning to `CCC(CC)(NC(=O)c1ccc(N2CC(OC)C2)c(OC[C@H]2C[C@@H]2CO)n1)C(=O)OCCCCF`, the Ki amounted to 1.8 nM.

As for `CCOC(=O)C(CC)(CC)NC(=O)c1ccc(N2CC(OC)C2)c(OC[C@H]2C[C@@H]2COCF)n1` (mixture of isomers), the Ki was 1.8 nM.

Turning to `CCOC(=O)C(CC)(CC)NC(=O)c1ccc(N2CC(OC)C2)c(OC[C@H]2C[C@@H]2COCCF)n1` (mixture of isomers), the Ki was found to be 3.7 nM.
